The target in one data set is human MCH1 receptor (Homo sapiens, UniProt Q99705). In words: Functional assay: intracellular calcium mobilization (antagonist potency Kb). The data set is classed as cell-based. The arrangement: expressed in transfected cells; host or cells: COS-7 cells, transient, DEAE-dextran, plasmid pEXJ.HR-TL231 (ATCC 203197). On the procedure:
Intracellular calcium mobilization assays for the MCH1 receptor were carried out using plasmid pEXJ.HR-TL231 (ATCC Accession No. 203197). COS-7 cells were transiently transfected with DNA encoding the MCH1 receptor utilizing the DEAE-dextran method as described above. The intracellular free calcium concentration was measured by fluorescent imaging using the calcium sensitive fluorscent dye Fluo-3. COS-7 cells expressing the human MCH1 receptor were seeded onto sterile 96 well plates, washed with Hank's balanced salt solution (HBSS), containing 20 mM HEPES, 2.5 mM probenecid, and 0.1% BSA, and loaded with the same buffer containing 3.8 μM Fluo-3 for 1 hour at 37° C. After washing with HBSS to remove the fluo-3 solution, cells were equilibrated for 10 minutes.
(In general: A change in cytosolic calcium serves as a functional read-out for many receptors and channels.)

Setting [1] is: Table 1, cloned human MCH1 receptor, functional assay, read-out: Kb (nM) hMCH1.
Setting [2] is: Table 2, antagonist potency at the human MCH1 receptor, read-out: hMCH1 Kb.
The mark [3] stands for this setting: Table 3, antagonist potency at the human MCH1 receptor, read-out: hMCH1 Kb.
[4] abbreviates: read-out: hMCH1 Kb, Table 3, antagonist potency at the human MCH1 receptor.

Structures can show the parent of a compound that is named as a salt. Where two headings read alike, the source gives them in different places.

Chain of human MCH1 receptor (Q99705 whole entry): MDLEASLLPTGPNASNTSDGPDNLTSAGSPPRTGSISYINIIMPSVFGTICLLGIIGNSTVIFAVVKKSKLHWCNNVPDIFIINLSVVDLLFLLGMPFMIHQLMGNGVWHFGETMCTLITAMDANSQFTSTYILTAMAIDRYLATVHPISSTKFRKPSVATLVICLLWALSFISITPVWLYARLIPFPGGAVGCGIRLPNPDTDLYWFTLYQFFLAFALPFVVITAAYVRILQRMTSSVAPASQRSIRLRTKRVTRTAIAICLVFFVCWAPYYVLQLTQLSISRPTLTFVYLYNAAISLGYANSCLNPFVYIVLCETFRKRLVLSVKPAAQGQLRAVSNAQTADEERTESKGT

Turning to `CCCCN(CCCC)c1ccc(CNC[C@H]2CC[C@H](NC(=O)c3cccc4ccccc34)CC2)cc1` [Example 13, N1-[4-([4-(DIBUTYLAMINO)BENZYL]AMINOMETHYL)CYCLOHEXYL]-1-NAPHTH-AMIDE], the antagonist dissociation constant (Kb) at human MCH1 receptor (setting [1]), on human MCH1 receptor (setting [2]) and on human MCH1 receptor (setting [3]) was 284 nM throughout.
Consider `CCCCN(CCCC)c1ccc(CN2CCC(CNC(=O)N3C(=O)NC(C)=C(C(=O)OC)C3c3ccc4nonc4c3)CC2)cc1` (stereo not drawn) [Example 6], for which the Kb on human MCH1 receptor (setting [1]), at human MCH1 receptor (setting [2]) and on human MCH1 receptor (setting [3]) was 42 nM each time.
`COC(=O)C1=C(C)NC(=O)N(C(=O)NCCCN2CCC3(CC2)OCc2ccccc23)C1c1ccc(F)c(F)c1` (stereo not drawn) (as salt: hydrochloride) [Example 20, 4-(3,4-DIFLUORPHENYL)-6-METHYL-2-OXO-3-{[3-(4-SPIRO[ISOBENZO-FURAN-1(3H),4′-PIPERIDINE]PROPYL}-1,2,3,4-TETRAHYDROPYRIMIDINE-5-CARBOXYLIC ACID METHYL ESTER] registered a melting point of 178 to 182 °C.
Regarding `COCC1=C(C(=O)OC)C(c2ccc(F)c(F)c2)N(C(=O)NCCCN2CCC(O)(c3ncccc3C)CC2)C(=O)N1` (single isomer, unassigned; (+)) [Example 16], the melting point lay within 132 to 135 °C.
On to `COC(=O)C1=C(C)NC(=O)N(C(=O)NCCCN2CCN(c3ccccc3[N+](=O)[O-])C[C@@H]2C)C1c1ccc(F)c(F)c1` (single isomer, unassigned; (+)) (as salt: HCl) [Example 34], for which the melting point was in the range of 150 to 153 °C.
`COCC1=C(C(=O)OC)C(c2ccc(F)c(F)c2)N(C(=O)NCCCN2CCC(OC(C)=O)(c3ccccc3)CC2)C(=O)N1` (stereo not drawn) (as salt: hydrochloride) [Example 3, (1)-1,2,3,6-TETRAHYDRO-1-{N-[3-(4-O-ACETYL)-4-PHENYLPIPERIDIN-1-YL]PROPYL}CARBOXAMIDO-5-METHOXYCARBONYL-4-METHOXYMETHYL-6-(3,4-DIFLUOROPHENYL)-2-OXOPYRIMIDINE] had a melting point of 82 to 84 °C.
With `COC(=O)C1=C(C)NC(=O)N(C(=O)NCCCN2CCC(c3ccccc3)CC2)C1c1ccc2nonc2c1` (stereo not drawn) [Example 8, 6-(BENZOFURAZAN-5-YL)-1,2,3,6-TETRAHYDRO-5-METHOXYCARBONYL-4-METHYL-2-OXO-1-{N-[3-(4-PHENYLPIPERIDIN-1-YL)PROPYL]}CARBOXAMIDO-PYRIMIDINE], on human MCH1 receptor (setting [1]), the Kb was determined as 88 nM.
`COC(=O)C1=C(C)NC(=O)N(C(=O)NCCCN2CCC(c3ccccc3)CC2)C1c1ccc(F)c(F)c1` (stereo not drawn) [Example 11, 6-(3,4-DIFLOUROPHENYL)-1,2,3,6-TETRAHYDRO-5-METHOXYCARBONYL-4-METHYL-2-OXO-1-{N-[3-(4-PHENYLPIPERIDIN-1-YL) PROPYL]}CARBOXAMIDO-PYRIMIDINE]: the Kb at human MCH1 receptor (setting [1]) came out at 331 nM.
Take `O=[N+]([O-])c1ccccc1S(=O)(=O)n1nnc2ccccc21` [Example 31, 1H-1,2,3-BENZOTRIAZOL-1-YL (2-NITROPHENYL) SULFONE]: the Kb at human MCH1 receptor (setting [1]) is 7 nM.
Consider `Cc1cc(O)cc(O)c1/C=N/c1ccc(-c2cn3ccccc3n2)cc1` [Example 27], for which the Kb at human MCH1 receptor (setting [1]) and at human MCH1 receptor (setting [2]) was 279 nM in each case.
For `O=C(CCCN1CCC(O)(c2ccc(Cl)cc2)CC1)c1ccc(Cl)cc1` [Example 29], the Kb on human MCH1 receptor was determined as 9 nM; at human MCH1 receptor (read-out: hMCH1 Kb, Table 2, antagonist potency at the human MCH1 receptor) it was 9 nM; at human MCH1 receptor (setting [4]), 9 nM.
As to `CN1CN(c2ccccc2)C2(CCN(CCCC(=O)c3ccc(F)cc3)CC2)C1=O` [Example 30, N-METHYL-8-[4-(4-FLUOROPHENYL)-4-OXOBUTYL]-1-PHENYL-1,3,8-TRI-AZASPIRO-[4.5]DECAN-4-ONE], the antagonist equilibrium constant (Kb) at human MCH1 receptor (setting [1]) and on human MCH1 receptor (setting [2]) was 479 nM throughout.
As for `O=C(CCCN1CCC(NC(=O)c2ccccc2)CC1)c1ccc(Cl)cc1` (as salt: HCl) [Example 28, 1-[3-(4-CHLOROBENZOYL)]PROPYL-4-BENZAMIDOPIPERIDINE], the melting point is 243 to 244 °C.
With `COC(=O)C1=C(C)NC(=O)N(C(=O)NCCCN2CCN(c3ccccc3C)CC2)C1c1ccc(F)c(F)c1` (stereo not drawn) [Example 35, 1,2,3,6-TETRAHYDRO-1{N-[4-(2′-METHYL-PHENYL)PIPERAZIN-1-YL]-PROPYL}-CARBOXAMIDO-4-METHYL-6-(3,4-DIFLUOROPHENYL)-2-OXO-PYRIMIDINE], on human MCH1 receptor (setting [1]), the antagonist dissociation constant (Kb) was determined as 276 nM.
Turning to `COCC1=C(C(=O)OC)C(c2ccc(F)c(F)c2)N(C(=O)NCCCN2CC=C(c3cccc(NC(C)=O)c3)CC2)C(=O)N1` (stereo not drawn) [Example 2, METHYL 3-[(3-4-[3-(ACETYLAMINO)PHENYL]-1,2,3,6-TETRAHYDRO-1-PYR-IDINYLPROPYL)AMINO]CARBONYL-4-(3,4-DIFLUOROPHENYL)-6-(METHOXY-METHYL)-2-OXO-1,2,3,4-TETRAHYDRO-5-PYRIMIDINECARBOXYLATE], the antagonist dissociation constant (Kb) on human MCH1 receptor (setting [1]), on human MCH1 receptor (setting [2]) and on human MCH1 receptor (setting [3]) was 18 nM each time.
Regarding `COC(=O)C1=C(C)NC(=O)N(C(=O)NCCCN2CCC3(CCc4ccccc43)CC2)C1c1ccc2nonc2c1` (racemic) [Example 21], on human MCH1 receptor (setting [1]), the Kb is 28 nM.
Regarding `COCC1=C(C(=O)OC)C(c2ccc(F)c(F)c2)N(C(=O)NCCCN2CCC(OC(C)=O)(c3ccccc3)CC2)C(=O)N1` (stereo not drawn) [Example 3, (1)-1,2,3,6-TETRAHYDRO-1-{N-[3-(4-O-ACETYL)-4-PHENYLPIPERIDIN-1-YL]PROPYL}CARBOXAMIDO-5-METHOXYCARBONYL-4-METHOXYMETHYL-6-(3,4-DIFLUOROPHENYL)-2-OXOPYRIMIDINE], the antagonist dissociation constant (Kb) on human MCH1 receptor stood at 201 nM.
Consider “(1)-1,2,3,6-TETRAHYDRO-1-{N-[4-(3,4-DIHYDRO-2-OXOSPIRONAPHTHALENE-1(2H))-PIPERIDINE-1-YL]PROPYL}CARBOXAMIDO-5-METHOXY-CARBONYL-2-OXO-6-(3,4-DIFLUOROPHENYL)-4-METHYL-PYRIMIDINE [Example 24]”, for which the Kb at human MCH1 receptor (setting [1]) came to 102 nM.
As to `O=C(NC1CCN(CCC2CCc3ccccc3C2=O)CC1)c1ccccc1` (stereo not drawn) [Example 5], the melting point fell in the range of 158 to 159 °C. The Kb on human MCH1 receptor (setting [1]) amounted to 258 nM.
`Fc1ccc(C(c2ccc(F)cc2)N2CCN(C/C=C/c3ccccc3)CC2)cc1` [Example 26, 1-[BIS(4-FLUOROPHENYL)METHYL]-4-(3-PHENYL-2-PROPENYL)PIPERAZINE]: the antagonist dissociation constant (Kb) on human MCH1 receptor (setting [1]) and at human MCH1 receptor (setting [2]) was 260 nM in each case.
Consider “(1)-1,2,3,6-TETRAHYDRO-1-{N-[4-(3,4-DIHYDRO-2-OXOSPIRONAPHTHALENE-1(2H))-PIPERIDINE-1-YL]PROPYL}CARBOXAMIDO-5-METHOXYCARBONYL-2-OXO-6-(3,4-BENZOFURAZAN)-4-METHYLPYRIMIDINE HYDROCHLORIDE [Example 23]”, for which, at human MCH1 receptor (setting [1]), the antagonist equilibrium constant (Kb) worked out at 68 nM.
`COCC1=C(C(=O)OC)C(c2ccc(F)c(F)c2)N(C(=O)NCCCN2CCC(c3cccc4ccccc34)CC2)C(=O)N1` (single isomer, unassigned; (+)) [Example 14, (+)-1,2,3,6-TETRAHYDRO-1-{N-[4-(1-NAPHTHYL)-PIPERIDIN-1-YL]PROP-YL}CARBOXAMIDO-4-METHOXYMETHYL-6-(3,4-DIFLUOROPHENYL)-2-OXO-PYRIMIDINE-5-CARBOXYLIC ACID METHYL ESTER] showed a melting point of 168 to 172 °C.
In turn, `COC(=O)C1=C(C)NC(=O)N(C(=O)NCCCN2CCN(c3ccccc3C)CC2)C1c1ccc(F)c(F)c1` (stereo not drawn) (as salt: hydrochloride) [Example 35, 1,2,3,6-TETRAHYDRO-1{N-[4-(2′-METHYL-PHENYL)PIPERAZIN-1-YL]-PROPYL}-CARBOXAMIDO-4-METHYL-6-(3,4-DIFLUOROPHENYL)-2-OXO-PYRIMIDINE] had a melting point of 66 to 71 °C.
As for `COC(=O)C1=C(C)NC(=O)N(C(=O)NCCCN2CCN(c3ccccc3[N+](=O)[O-])C[C@@H]2C)C1c1ccc(F)c(F)c1` (single isomer, unassigned; (+)) [Example 34], the antagonist dissociation constant (Kb) at human MCH1 receptor (setting [1]) stood at 182 nM.
In turn, `COC(=O)C1=C(C)NC(=O)N(C(=O)NCCCN2CCC3(CC2)OCc2ccccc23)C1c1ccc2nonc2c1` (single isomer, unassigned) (as salt: hydrochloride) [Example 18] showed a melting point of 180 to 182 °C.
`COC(=O)C1=C(C)NC(=O)N(C(=O)NCCCN2CCC3(CCc4ccccc43)CC2)C1c1ccc(F)c(F)c1` (stereo not drawn) [Example 32, (1)-1,2,3,6-TETRAHYDRO-1-{N-[4-(DIHYDROINDENE)-1-YL}PROPYL}-CARBOXAMIDO-5-METHOXYCARBONYL-2-OXO-6-(3,4-DIFLUORO)-4-METHYL-PYRIMIDINE] displayed a melting point of 150 to 153 °C. Also, on human MCH1 receptor, the Kb was 67 nM.
As for `COC(=O)C1=C(C)NC(=O)N(C(=O)NCCCN2CCC3(CC2)OCc2ccccc23)C1c1ccc(F)c(F)c1` (stereo not drawn) [Example 20, 4-(3,4-DIFLUORPHENYL)-6-METHYL-2-OXO-3-{[3-(4-SPIRO[ISOBENZO-FURAN-1(3H),4′-PIPERIDINE]PROPYL}-1,2,3,4-TETRAHYDROPYRIMIDINE-5-CARBOXYLIC ACID METHYL ESTER], the Kb at human MCH1 receptor is 5 nM; on human MCH1 receptor (read-out: Kb (nM) hMCH1, Table 1, cloned human MCH1 receptor, functional assay), 5 nM; at human MCH1 receptor (setting [4]), 5 nM.

One may read the Kb as the affinity of an antagonist, worked out from how it opposes an agonist. Broadly, the melting point is the temperature, or range, at which the solid turns liquid.

The record behind these values is patent publication US6720324B2, “Selective melanin concentrating hormone-1 (MCH1) receptor antagonists and uses thereof” (Synaptic Pharmaceutical Corporation, priority 2000, dated 2004).
